According to patent US20260240851A1, “Treatment of Parkinson's Disease in a Patient Using a Glucocerebrosidase Activator” (BIAL - R&D Investments, S.A., priority 2023, published 2026):

Key:
Assay type in all cases: in vivo, human
[1] = LTI-291-002: CNS (NeuroCart) assessments
Method: (§1) This study was a phase 1, randomized, double-blind, placebo-controlled, multiple ascending dose study of Compound A in 4 cohorts of middle-aged to elderly healthy participants (aged 52 to 75 years). […] A total of 39 healthy subjects were enrolled in 4 sequential cohorts. Subjects in each cohort received once-daily oral doses of 3 mg (n=7), 10 mg (n=8), 30 mg (n=8), or 60 mg (n=8) Compound A or placebo (n=8) for 14 days. Pharmacokinetic parameters were determined for each dose at Day 1, Day 7, and Day 14. Cerebrospinal fluid samples for Compound A concentrations were measured before the first dose and 4 hours after the last dose for each dose level. GluCer, glucosyl sphingosine (GluSph), and lactosyl-ceramide (LacCer) were measured in plasma, PBMCs, and CSF as biomarkers of pharmacological effects. Pharmacodynamic measurements consisted of battery of CNS (NeuroCart®) assessments including Saccadic Eye Movements, Smooth Pursuit Eye Movements, Adaptive Tracking, Body Sway, Visual Verbal Learning Test, and pharmaco-EEG.

[2] = LTI-291-002: safety and tolerability
Method: as §1

[3] = Phase 2 placebo-controlled study of Compound A in GBA-PD (Example 3)
From the text: This study is a Phase 2, randomized, double-blind, placebo-controlled, multiple oral dose study of Compound A in subjects (aged 35 to 80 years, inclusive) with GBA-PD. The subjects have a clinical diagnosis of PD for at least 1 year and for no longer than 7 years before initiation of screening (for Part A), as confirmed by a neurologist using the MDS Criteria for Parkinson's Disease, have a modified Hoehn and Yahr score 2.5, have a score of ≥22 on the Montreal Cognitive Assessment (MoCA), and are receiving symptomatic treatment for PD. […] The objectives of this study are to investigate the efficacy, safety, tolerability, pharmacodynamics and PK of once-daily oral administration of Compound A.
Genetic screening of the subjects is performed using blood collected (preferably whole blood samples). Subjects are screened by sequencing of the full GBA1 gene, with specifications of any PD risk-associated variants that are identified. Subjects are also screened for the presence or absence of PD risk-associated variants in the LRRK2 (Leucine-rich repeat kinase 2) gene. Subjects who have an LRRK2 pathogenic variant are not eligible for Part B (Double-Blind Treatment) of the study.
Subjects that have a pathogenic variant in the glucocerebrosidase 1 (GBA1) gene (GBA-PD) (for example, see Appendix 1) and have been on a stable dose of PD medication for at least 30 days (at least 60 days for rasagiline) before commencing treatment are included in the next stage of the trial. In addition, subjects with the following are excluded from further treatment: • The subject has Gaucher's disease (GD), as defined by clinical signs and symptoms (i.e., hepatosplenomegaly, cytopenia, skeletal disease), and/or a medical history of marked deficiency of GCase plasmatic activity (preferably GCase whole blood activity) compatible with GD. • The subject is homozygous for a GBA1 pathogenic variant that is known to be associated with GD or compound heterozygous for 2 alleles that are known to be associated with GD. • The subject carries a known PD-associated LRRK2 pathogenic variant (for example, see Appendix 2). • The subject has atypical or secondary parkinsonism by medical history or in the opinion of the investigator. Atypical parkinsonism includes, but is not limited to, diagnoses of progressive supranuclear palsy, cortico-basal syndrome, and multiple system atrophy. Secondary parkinsonism includes drug-induced, toxin-induced, postinfectious, posttraumatic, or vascular parkinsonism. • The subject is using a strong CYP3A4 modulator at the time of screening for Part B. • The subject is using a breast cancer resistance protein (BCRP) substrate (e.g. pravastatin, rosuvastatin, glyburide) at the time of screening for Part B. • (Optionally) The subject has used any of the following medications within 60 days before Baseline: typical or atypical antipsychotics (including, but not limited to, clozapine, pimavanserin, olanzapine, quetiapine, risperidone, and aripiprazole); metoclopramide; prochlorperazine; methyldopa; tetrabenazine; deutetrabenazine; valbenazine; reserpine; or a prior history or continuation or initiation during the study of ambroxol at doses >120 mg/day.
Subjects are randomly assigned to three groups who receive i) Compound A 10 mg, once daily, oral administration, ii) Compound A 60 mg, once daily, oral administration, or iii) Placebo, once daily, oral administration. Subjects also receive their usual PD medications throughout the study. Randomization is stratified by major/severe (e.g., heterozygous for N370S, D409H, H255Q, D140H, G202R, L324P, I260T, L444P, A190T, R120W; homozygous for T369M or E326K) or minor/mild (e.g., heterozygous for T369M or E326K) PD risk-associated variant. Alternatively, randomization is stratified by severity as a mild or severe GBA1 variant as described in Parlar, 2023 (also see Appendix 1). […]

[4] = LTI-291-004 imaging study in GBA-PD: plasma concentrations; settings: Day 7, Day 14, Day 28, GBA-PD
Method: This study was a Phase 1B, randomized, double-blind, placebo-controlled, multiple oral dose study of Compound A in 14 subjects (aged 51 to 81 years) with GBA-PD. The objectives of this study were to investigate the safety, tolerability, and PK of multiple once-daily oral administration of Compound A and to explore the accompanying pharmacodynamic changes. Subjects received once-daily oral doses of 10 mg (n=6) or 60 mg (2×30 mg capsules) (n=6) Compound A or placebo (n=2) for 28 consecutive days. PK samples were measured once on Day 7 and Day 14 and 4 times after the last dose on Day 28. Plasma concentrations were summarized at each time point, and no PK parameters were estimated. The PD evaluations included fMRI measures; FDG-PET to determine the metabolic rate of glucose in specific regions of the brain; and functional outcome measures (MDS-UPDRS Part III and the MMSE). GluCer, GluSph, and LacCer and other sphingolipids were measured in PBMCs and plasma as biomarkers of pharmacological effect.

## CCCCCO[C@H]1CC[C@H](NC(=O)c2cnn3c(C)cc(C)nc23)CC1 [Compound A, 5,7-dimethyl-N-((1S*,4S)-4-(pentyloxy)cyclohexyl)pyrazolo[1,5-a]pyrimidine-3-carboxamide]
[1]; 3 mg vs placebo
  EEG Alpha-power Pz-Oz, eyes closed: significant decrease
[1]; 3-60 mg daily for 14 days
  effects on CNS (Neurocart) tests: no dose-dependent effects
[1]; 10 and 30 mg groups vs placebo
  saccadic inaccuracy: significant increase
[1]; vs placebo
  saccadic peak velocity or reaction time: No changes
[2]; 3 mg dose group
  Myalgia, subjects: 14%
  Somnolence, subjects: 14%
[2]; 10 mg dose group
  Myalgia, subjects: 0%
  Somnolence, subjects: 0%
[2]; 30 mg dose group
  Myalgia, subjects: 13%
  Somnolence, subjects: 0%
[2]; 60 mg dose group
  Myalgia, subjects: 38%
  Somnolence, subjects: 50%
[2]; 60 mg group
  creatine kinase abnormalities: No clinically significant creatine kinase abnormalities
[2]; 3-60 mg daily for 14 days
  deaths, SAEs, severe AEs, discontinuations due to AEs: No deaths, other SAEs, severe AEs, or discontinuations due to AEs
[2]; 14 days
  vital signs, laboratory safety assessments, ECG parameters: no clinically significant safety observations
[2]; all Compound A groups
  AE back pain, subjects: 13%
  AE headache, subjects: 39%
  AE myalgia, subjects: 16%
  AE somnolence, subjects: 16%
[3]; all measured time points
  Mean plasma concentrations, 60 mg vs 10 mg: higher after the 60 mg dose than after the 10 mg dose
[3]; some subjects, Compound A 10 or 60 mg daily up to 78 weeks vs placebo
  time to worsening (MDS-UPDRS based and other measures): increased time to worsening
[3]; vs placebo
  Mean change in lysosomal activity: higher
  Mean change in plasma concentrations of neurofilament light chain: lower
  Mean change of cerebral blood flow by arterial spin labeling with MRI: higher
  mean change in the level of GluSph: higher
[4]
  Mean plasma concentrations, 60 mg vs 10 mg: higher after the 60 mg dose than after the 10 mg dose
